Experimental data published in patent publication US20220387451A1, “AMORPHOUS PHARMACEUTICAL COMPOSITIONS OF ABIRATERONE ACETATE” (SUVEN LIFE SCIENCES LIMITED, priority 2019, published 2022).

How the values were obtained:
[1] = Excretion after an oral dose of abiraterone acetate (literature); format: in vivo; conditions: feces plus urine
Excerpt: Due to highly lipophilic nature and poor aqueous solubility in the gastrointestinal tract, the oral bioavailability of abiraterone acetate is limited. After an oral dose of abiraterone acetate, 88% of the administered drug gets excreted unchanged through feces, and another 5% is excreted in the urine (Ryan C J et al., J ClinOncol. 2010; 28(9):1481-1488). Therefore, >90% of the administered drug gets excreted and is not used for its intended treatment. […] As a result, Zytiga® must be taken on an empty stomach with water at least […] a meal. There is a need for developing new pharmaceutical compositions for abiraterone acetate that improve bioavailability in the fasted state to in turn reduce the food effect and overall variability in absorption.

[2] = after an oral dose; cited from earlier work

Q: Which administered drug excreted [1] does the source give for `CC(=O)O[C@H]1CC[C@@]2(C)C(=CC[C@@H]3[C@@H]2CC[C@]2(C)C(c4cccnc4)=CC[C@@H]32)C1` [Abiraterone acetate] here?
A: The administered drug excreted was over 90%.

Q: What about the “administered drug excreted in the urine” value [2] of the same compound?
A: Its value is 5%.

Q: What about the “administered drug excreted unchanged through feces” value [2] of the same compound?
A: Its value is 88%.
